Patent publication US10206907B2, “Compounds useful for the treatment of degenerative and inflammatory diseases” (GALAPAGOS NV, priority 2008, dated 2019)
Read-outs that look alike come from different tables or passages of the source.

Key:
[1] = Caco2 permeability (bi-directional); type: in vitro ADME, human; settings: human, pH 7.4; for Papp A→B at 1 h, 10 µM: Caco-2, apical to basolateral, read-out: Papp (A2B); for efflux ratio at 1 h, 10 µM: Caco-2, ratio of PappB>A/PappA>B
Summary of the method: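 Compound concentrations in both chambers were measured by LC-MS/MS after 1 h incubation at 37 °C on an orbital shaker. Efflux ratio is PappB>A over PappA>B. Lucifer Yellow (50 μM in donor) confirmed layer integrity, with permeability of ≤100 nm/s required.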

[2] = system: Collagen Induced Arthritis (CIA); test: Rat CIA model; type: in vivo; settings: therapeutic dosing day 16 to day 30, p.o., statistical significance in several of the readouts
Description: Completed Freund's adjuvant (CFA) and incomplete Freund's adjuvant (IFA) were purchased from Difco. Bovine collagen type II (CII), lipopolysaccharide (LPS), and Enbrel were obtained from Chondrex (Isle d'Abeau, France); Sigma (P4252, L'Isle d'Abeau, France), Whyett (25 mg injectable syringe, France) Acros Organics (Palo Alto, Calif.), respectively. All other reagents used were of reagent grade and all solvents were of analytical grade.
Dark Agouti rats (male, 7-8 weeks old) were obtained from Harlan Laboratories (Maison-Alfort, France). Rats were kept on a 12 hours light/dark cycle (0700-1900). The temperature was maintained at 22° C., and food and water were provided ad libitum.
One day before the experiment, CII solution (2 mg/mL) was prepared with 0.05 M acetic acid and stored at 4° C. Just before the immunization, equal volumes of adjuvant (IFA) and CII were mixed by a homogenizer in a pre-cooled glass bottle in an ice water bath. Extra adjuvant and prolonged homogenization might be required if an emulsion is not formed. 0.2 mL of the emulsion was injected intradermally at the base of the tail of each rat on day 1, a second booster intradermal injection (CII solution at 2 mg/mL in CFA 0.1 mL saline) was performed on day 9. This immunization method was modified from published methods (Sims N A et al., (2004) Targeting osteoclasts with zoledronic acid prevents bone destruction in collagen-induced arthritis, Arthritis Rheum. 50 2338-2346; Jou et al., 2005).
The therapeutic effects of the test compounds were tested in the rat CIA model. Rats were randomly divided into equal groups and each group contained 10 rats. All rats were immunized on day 1 and boosted on day 9. Therapeutic dosing lasted from day 16 to day 30. The negative control group was treated with vehicle (MC 0.5%) and the positive control group with Enbrel (10 mg/kg, 3× week, s.c.). A compound of interest was typically tested at 3 doses, e.g. 3, 10, 30 mg/kg, p.o.
Arthritis was scored according the method of Khachigian 2006, Lin et al 2007 and Nishida et al. 2004. The swelling of each of the four paws was ranked with the arthritic score as follows: 0-no symptoms; 1-mild, but definite redness and swelling of one type of joint such as the ankle or wrist, or apparent redness and swelling limited to individual digits, regardless of the number of affected digits; 2-moderate redness and swelling of two or more types of joints; 3-severe redness and swelling of the entire paw including digits; 4-maximally inflamed limb with involvement of multiple joints (maximum cumulative clinical arthritis score 16 per animal) (Nishida et al., 2004).
Clinically, body weight loss is associated with arthritis (Shelton et al., 2005; Argiles et al., 1998; Rall, 2004; Walsmith et al., 2004). […] The change in body weight (%) after onset of arthritis was calculated as follows: […]
X-ray photos were taken of the hind paws of each individual animal. A random blind identity number was assigned to each of the photos, and the severity of bone erosion was ranked by two independent scorers with the radiological Larsen's score system as follows: 0-normal with intact bony outlines and normal joint space; 1—slight abnormality with any one or two of the exterior metatarsal bones showing slight bone erosion; 2—definite early abnormality with any three to five of the exterior metatarsal bones showing bone erosion; 3—medium destructive abnormality with all the exterior metatarsal bones as well as any one or two of the interior metatarsal bones showing definite bone erosions; 4—severe destructive abnormality with all the metatarsal bones showing definite bone erosion and at least one of the inner metatarsal joints completely eroded leaving some bony joint outlines partly preserved; 5—mutilating abnormality without bony outlines. This scoring system is a modification from Salvcmini et al., 2001; Bush et al., 2002; Sims et al., 2004; Jou et al., 2005. […]

[3] = molecular target: Recombinant human JAK3 catalytic domain (Homo sapiens (Human), UniProt P52333); test: JAK3 inhibition assay; type: biochemical
TNF-alpha release = test: Septic shock model (LPS-induced TNF release); type: in vivo, mouse; settings: 30 mg/kg po, BALB/cJ mice, LPS ip; statistically significant
Description: Injection of lipopolysaccharide (LPS) induces a rapid release of soluble tumour necrosis factor (TNF-alpha) into the periphery. This model is used to analyse prospective blockers of TNF release in vivo.
Six BALB/cJ female mice (20 g) per group were treated at the intended dosing once, po. Thirty minutes later, LPS (15 μg/kg; E. Coli serotype 0111:B4) was injected ip. Ninety minutes later, mice were euthanized and blood was collected. Circulating TNF alpha levels were determined using commercially available ELISA kits. Dexamethasone (5 μg/kg) was used as a reference anti-inflammatory compound. Selected compounds are tested at one or multiple doses, e.g. 3 and/or 10 and/or 30 mg/kg, po.

Recombinant human JAK3 catalytic domain, sequence (P52333 781-1124): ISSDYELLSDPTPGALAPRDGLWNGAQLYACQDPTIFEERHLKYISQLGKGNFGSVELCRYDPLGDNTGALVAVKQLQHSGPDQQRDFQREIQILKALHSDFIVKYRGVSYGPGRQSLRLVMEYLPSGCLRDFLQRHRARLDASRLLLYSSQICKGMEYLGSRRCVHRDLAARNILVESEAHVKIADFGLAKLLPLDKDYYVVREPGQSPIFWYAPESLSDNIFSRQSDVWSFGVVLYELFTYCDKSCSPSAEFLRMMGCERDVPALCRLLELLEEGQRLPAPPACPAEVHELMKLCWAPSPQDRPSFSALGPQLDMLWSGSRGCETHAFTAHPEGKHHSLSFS

| SMILES | Papp A→B at 1 h, 10 µM [1] [×10⁻⁶ cm/s] | efflux ratio at 1 h, 10 µM [1] | efficacy in all readouts of the rat CIA study [2] | IC50 ([3]; semi-quantitative score) [nM] | reduction in the TNF release (TNF-alpha release) [%] | IC50 [3] [nM] |
| --- | --- | --- | --- | --- | --- | --- |
| CC1CCCN(C(=O)c2ccc(-c3cccc4nc(NC(=O)C5CC5)nn34)cc2)C1 (stereo not shown) [Compound 145, N-(5-(4-(3-methylpiperidine-1-carbonyl)phenyl)-[1,2,4]triazolo[1,5-a]pyridin-2-yl)cyclopropanecarboxamide] | 14.7 | 2 | efficacious in all readouts | – | – | – |
| CC1CN(C(=O)c2ccc(-c3cccc4nc(NC(=O)C5CC5)nn34)cc2)CC(C)O1 (stereo not shown) [Compound 215, Cyclopropanecarboxylic acid {5-[4-(2,6-dimethyl-morpholine-4-carbonyl)-phenyl]-[1,2,4]triazolo[1,5-a]pyridin-2-yl}-amide] | 6.05 | 9.3 | efficacious in all readouts | < 100 | > 50 | – |
| CC1(C)CN(C(=O)c2ccc(-c3cccc4nc(NC(=O)C5CC5)nn34)cc2)C1 [Compound 330, Cyclopropanecarboxylic acid (5-[4-(3,3-dimethyl-azetidine-1-carbonyl)-phenyl]-[1,2,4]triazolo[1,5-a]pyridin-2-yl}-amide] | 6.5 | 5.5 | efficacious in all readouts | 101 to 500 | – | – |
| O=C(Nc1nc2cccc(-c3ccc(CN4CCOCC4)cc3)n2n1)C1CC1 [Compound 18, N-(5-(4-(morpholinomethyl)phenyl)-[1,2,4]triazolo[1,5-a]pyridin-2-yl)cyclopropanecarboxamide] | – | – | efficacious in all readouts | > 1000 | > 50 | – |
| N#Cc1ccc(COc2ccc(-c3cccc4nc(NC(=O)C5CC5)nn34)cc2)cn1 [Compound 176, N-(5-(4-((6-cyanopyridin-3-yl)methoxy)phenyl)-[1,2,4]triazolo[1,5-a]pyridin-2-yl)cyclopropanecarboxamide] | – | 0.8 | efficacious in all readouts | – | > 50 | < 100 |
